Source: patent US5817800A, “Inhibitors of β-glucuronidase and their use in the treatment of carcinamatosis and inflammation” (Hoechst Aktiengesellschaft, priority 1996, dated 1998)
Counter-ions that a name gives are not always drawn.

Biological target: T1, human β-glucuronidase (Homo sapiens, UniProt P08236)
T1 sequence (P08236 23-651): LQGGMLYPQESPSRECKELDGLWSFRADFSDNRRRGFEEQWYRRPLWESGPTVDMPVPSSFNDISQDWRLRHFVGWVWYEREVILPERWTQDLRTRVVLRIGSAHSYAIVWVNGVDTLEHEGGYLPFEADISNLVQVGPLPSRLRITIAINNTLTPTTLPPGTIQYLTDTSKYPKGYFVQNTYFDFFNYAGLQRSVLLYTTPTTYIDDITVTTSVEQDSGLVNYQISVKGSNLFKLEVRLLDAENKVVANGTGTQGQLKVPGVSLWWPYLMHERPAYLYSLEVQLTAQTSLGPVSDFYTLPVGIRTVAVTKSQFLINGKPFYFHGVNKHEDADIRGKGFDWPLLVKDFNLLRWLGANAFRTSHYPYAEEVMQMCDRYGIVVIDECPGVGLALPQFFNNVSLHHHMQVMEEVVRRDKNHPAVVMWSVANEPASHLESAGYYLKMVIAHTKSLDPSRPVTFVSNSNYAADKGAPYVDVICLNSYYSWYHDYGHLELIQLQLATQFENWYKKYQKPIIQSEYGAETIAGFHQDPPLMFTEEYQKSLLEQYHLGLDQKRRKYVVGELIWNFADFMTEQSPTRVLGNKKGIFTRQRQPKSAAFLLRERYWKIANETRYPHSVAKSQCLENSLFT
Experiment: Inhibition of human β-glucuronidase (4-methylumbelliferyl-β-D-glucuronide substrate, fluorescence)
Format: biochemical
Details: substrate 4-methylumbelliferyl-β-D-glucuronide; 200 mM sodium acetate, 0.1 mg/ml BSA, pH 5; 10 min, 37° C.
Experimental: The inhibition of human β-glucuronidase was determined using 4-methylumbelliferyl-β-D-glucuronide as a substrate. The test mixture contained 75 μl of 2.5 mM 4-methylumbelliferyl-β-D-glucuronide, 25 μl of enzyme (0.6 μg/ml) and 10 μl of the compound of the formula I in a concentration range from 0.0001 to 100 mM, all in 200 mM sodium acetate buffer and 0.1 mg/ml bovine serum albumin (BSA), pH 5. After a 10-minute incubation at 37° C., the mixture was stopped with 1.5 ml of 0.2 M glycine/0.2% SDS, pH 11.7. The methylumbelliferone released by the enzyme was measured in a fluorescence photometer at 360 nm excitation and 450 nm emission wavelength.
The IC50 -values were calculated from the inhibitor dilution series using the software program GraFit 2.0 (Erithacus Software Ltd.).

IC50	Structure (SMILES)
11 mM	O=C(Nc1ccccc1)O/N=C1\O[C@H](P(=O)(O)O)[C@@H](O)[C@H](O)[C@H]1O [Example 2, Sodium (5R,Z)-O-(5-C-phosphonato-D-xylopyranosylidene) amino N-phenylcarbamate]
0.0006 mM	O=C(Nc1ccccc1)O/N=C1\O[C@H](C(=O)O)[C@@H](O)[C@H](O)[C@H]1O [Example 1, (Z)-O-(D-Glucopyranuronosylidene)amino N-phenylcarbamate (sodium salt)]
